Test results as given in article PMC12389534, “Unlocking Therapeutic Potential of Novel Thieno-Oxazepine Hybrids as Multi-Target Inhibitors of AChE/BChE and Evaluation Against Alzheimer’s Disease: In Vivo, In Vitro, Histopathological, and Docking Studies” (Pharmaceuticals, 2025).

Tests used:
[1] = system: AlCl3-induced AD rat model; assay: Y-maze SAP test in AlCl3-induced AD rats; format: in vivo; settings: for SAP%: mean ± SE, n = 6
Protocol: All procedures were conducted conforming to the applicable National Institutes of Health standards and regulations for the Care and Use of Laboratory Animals. In this experiment, adult male Dawley rats in excellent condition weighing between 300 and 320 g were used. The animals were acquired from the Nile Company for Pharmaceuticals and Chemical Industries (Cairo, Egypt). They were placed in a controlled laboratory setting with unrestricted access to water, a temperature range of 24 to 26 °C, and 12 h a light–dark cycle. Three rats per cage were housed in polycarbonate cages that were individually packed with paper and encased with stainless steel wire.
One kind of short-term memory that SAP can represent is spatial working memory. Three arms, designated A, B, or C, were employed in a black hardwood Y-maze with a symmetrical triangular core space. Rats were briefly positioned at the edge of one arm and given 8 min to freely navigate around the maze. When the rat’s rear paws were fully inside the arm, the entries were counted. The following formula was used to determine SAP based on the total number of arm entries and alternations: SAP (%) = [number of alternations/(total arm entries − 2)] × 100 [94].

BACE1 = assay: Brain BACE1 level (ELISA); format: in vivo, rat; design: reduction of BACE1 levels: concentration or dose not given beside the values; settings: AlCl3-induced AD rats; for BACE1 (ng/mL): mean ± SE, n = 6
Protocol: (§1) The brain tissues of the rats were removed and rigorously washed in isotonic saline 24 h after they were euthanized following the last behavioral test. For histological investigation, four brains per group were preserved for the whole night in 10% neutral buffered formalin. The remaining six brains were split into two sections each. In order to create a 10% homogenate (w/v), the first component was instantaneously homogenized using an ice-cold solution that included 300 mM sucrose and 50 mM Tris-HCl (pH 7.4). The homogenate was centrifuged at 1800× g for 10 min at 4 °C for biochemical tests, and the supernatant was thereafter kept at −20 °C. The second portion was set aside for use in RT-PCR analysis at −80 °C [94]. […]

Amyloid-β = assay: Brain amyloid-β level (ELISA); format: in vivo, rat; design: reduction of β-amyloid levels: concentration or dose not given beside the values; settings: AlCl3-induced AD rats; for Amyloid-β (ng/g Tissue): brain, mean ± SE, n = 6
Protocol: (§2) The brain tissues of the rats were removed and rigorously washed in isotonic saline 24 h after they were euthanized following the last behavioral test. For histological investigation, four brains per group were preserved for the whole night in 10% neutral buffered formalin. The remaining six brains were split into two sections each. In order to create a 10% homogenate (w/v), the first component was instantaneously homogenized using an ice-cold solution that included 300 mM sucrose and 50 mM Tris-HCl (pH 7.4). The homogenate was centrifuged at 1800× g for 10 min at 4 °C for biochemical tests, and the supernatant was thereafter kept at −20 °C. The second portion was set aside for use in RT-PCR analysis at −80 °C [94].
(§3) See Supplementary Information.

5-HT = assay: Brain 5-HT level (fluorometric); format: in vivo, rat; settings: AlCl3-induced AD rats; for 5-HT (ng/g Tissue): brain tissue, mean ± SE, n = 6
Protocol: as §2
(§4) Brain monoamine levels were promptly assessed following the rats’ euthanasia to prevent changes in the substance’s concentration. Dopamine (DA), norepinephrine (NE), and serotonin (5-HT) fluorometric tests were conducted on brain tissue homogenate using the Ciarlone method. […] The concentrations were articulated as nanograms per gram of fresh tissue using the fluorescence of reference solutions [95].

DA = assay: Brain DA level (fluorometric); format: in vivo, rat; settings: AlCl3-induced AD rats; for DA (ng/g Tissue): brain tissue, mean ± SE, n = 6
Protocol: as §2, §4

NE = assay: Brain NE level (fluorometric); format: in vivo, rat; settings: AlCl3-induced AD rats; for NE (nmol/g Tissue): brain tissue, mean ± SE, n = 6
Protocol: as §2, §4

AChE = format: in vivo; design: reduction in AChE levels: concentration or dose not given beside the values; settings: AlCl3-induced AD rats; for AChE (ng/g Tissue): brain tissue, mean ± SE, n = 6; for reduction in AChE levels: brain
IL-1β = assay: Brain IL-1β level (ELISA); format: in vivo, rat; design: reduction in IL-1β levels: concentration or dose not given beside the values; settings: AlCl3-induced AD rats; for IL-β (pg/g Tissue): mean ± SE, n = 6
Protocol: as §1

NFκβ = NFκβ mRNA expression (RT-qPCR); format: in vivo, rat; design: reduction of NFκβ mRNA expression: concentration or dose not given beside the values; settings: AlCl3-induced AD rats; for NFκβ: mRNA expression level, mean ± SE, n = 6
Protocol: as §2, §3

NLRP3 = NLRP3 mRNA expression (RT-qPCR); format: in vivo, rat; design: reduction of NLRP3 mRNA expression: concentration or dose not given beside the values; settings: AlCl3-induced AD rats; for NLRP3: mRNA expression level, mean ± SE, n = 6
Protocol: as §2, §3

Caspase-1 = Caspase-1 gene expression (RT-qPCR); format: in vivo, rat; design: reduction of Caspase-1 levels: concentration or dose not given beside the values; settings: AlCl3-induced AD rats; for Caspase-1: gene expression, mean ± SE, n = 6
Protocol: as §2, §3

BAX = BAX gene expression (RT-qPCR); format: in vivo, rat; settings: AlCl3-induced AD rats; for BAX: gene expression, mean ± SE, n = 6
Protocol: as §2, §3

Wnt3a = assay: Brain Wnt3a level; format: in vivo, rat; settings: AlCl3-induced AD rats; for Wnt3a (ng/g Tissue): mean ± SE, n = 6
Protocol: as §2, §3

SOD = assay: Brain SOD activity (colorimetric); format: in vivo, rat; settings: AlCl3-induced AD rats; for SOD(U/g): brain tissue, mean ± SE, n = 6
Protocol: as §2
The SOD enzyme activity was estimated using the Marklund et al. method, which is founded on the enzyme’s capacity to decrease the nitro blue tetrazolium dye at a wavelength of 540 nm. To evaluate the TAC, a colorimetric approach was employed to estimate the amount of hydrogen peroxide that remains after 3,5-dichloro-2-hydroxybenzene sulphonate is converted to a colored product at 660 nm.

MDA = assay: Brain MDA content (thiobarbituric acid method); format: in vivo, rat; design: reduction in MDA brain content: concentration or dose not given beside the values; settings: AlCl3-induced AD rats; for MDA (nmol/g Tissue): brain tissue, mean ± SE, n = 6
Nrf-2 = Nrf-2 mRNA expression (RT-qPCR); format: in vivo, rat; settings: mRNA expression in brain tissue; AlCl3-induced AD rats; mean ± SE, n = 6
Protocol: as §2, §3

BChE = molecular target: T1, BChE (Homo sapiens, UniProt P06276); assay: biochemical; settings: for IC50: fluorescence kit, triplicate; for Selectivity Index BChE/AChE: ratio of IC50 BChE to IC50 AChE, <1 = preferential BChE inhibition
T1 construct: purchased Invitrogen EIABCHEF
Protocol: Using an Invitrogen BChE test kit (Catalog #EIABCHEF), the assay was performed in compliance with the supplier’s instructions. The study was conducted using black 96-well plates. […] Each well was then filled with 50 μL of the reaction mixture, which consisted of fluorescence detection reagent and butyrylthiocholine iodide in assay buffer. The plate was then left to incubate for 20 min at room temperature. Finally, excitation at 390 nm was used to observe emission at 510 nm using a microplate reader. Background fluorescence was further eliminated for each data point.

T1 sequence (P06276 29-602): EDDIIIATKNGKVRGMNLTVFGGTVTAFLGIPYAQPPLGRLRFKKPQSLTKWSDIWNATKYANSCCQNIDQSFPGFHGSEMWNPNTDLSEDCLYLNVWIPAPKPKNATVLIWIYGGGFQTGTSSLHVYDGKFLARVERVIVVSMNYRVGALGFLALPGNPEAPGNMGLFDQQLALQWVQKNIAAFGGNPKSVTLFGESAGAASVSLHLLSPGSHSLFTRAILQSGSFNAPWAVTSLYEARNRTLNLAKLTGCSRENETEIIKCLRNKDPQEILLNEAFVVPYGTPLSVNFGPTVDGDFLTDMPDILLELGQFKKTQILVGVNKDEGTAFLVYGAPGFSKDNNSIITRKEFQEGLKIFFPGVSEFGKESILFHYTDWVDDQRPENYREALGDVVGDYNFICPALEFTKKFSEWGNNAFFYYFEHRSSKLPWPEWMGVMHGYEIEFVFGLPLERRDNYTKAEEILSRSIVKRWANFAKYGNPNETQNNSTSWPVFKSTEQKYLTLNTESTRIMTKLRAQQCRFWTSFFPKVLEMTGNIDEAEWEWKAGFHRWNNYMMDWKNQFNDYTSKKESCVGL

Compound | SAP% [1] | reduction of BACE1 levels (BACE1) [%] | BACE1 (ng/mL) (BACE1) | reduction of β-amyloid levels (Amyloid-β) [%] | Amyloid-β (ng/g Tissue) (Amyloid-β) | elevation of 5-HT levels (5-HT) [fold] | 5-HT (ng/g Tissue) (5-HT) | DA (ng/g Tissue) (DA) | NE (nmol/g Tissue) (NE) | AChE (ng/g Tissue) (AChE) | reduction in AChE levels (AChE) [%] | reduction in IL-1β levels (IL-1β) [%] | IL-β (pg/g Tissue) (IL-1β) | NFκβ (NFκβ) | NLRP3 (NLRP3) | Caspase-1 (Caspase-1) | suppression of BAX gene expression (BAX) [%] | BAX (BAX) | elevation of Wnt3a levels (Wnt3a) [fold] | Wnt3a (ng/g Tissue) (Wnt3a) | further results
CCOC(=O)c1c(O)sc2c1CCCCC2 [Compound 2, Ethyl 2-hydroxy-5,6,7,8-tetrahydro-4H-cyclohepta[b]thiophene-3-carboxylate] | 62.33 ± 1.05 ^abc % | 20.4 | 23.60 ± 0.2 ^abc ng/mL | 30.2 | 19.52 ± 0.15 ^abc ng/g Tissue | 1.7 | 3.16 ± 0.63 ^abc ng/g Tissue | 24.71 ± 1.62 ^abc ng/g Tissue | 256.9 ± 1.62 ^abc nmol/g Tissue | 51.41 ± 0.13 ^abc ng/g Tissue | 23.6 | 20.6 | 93.93 ± 1.26 ^abc pg/g Tissue | 6.53 ± 0.08 ^abc | 8.29 ± 0.09 ^abc | 7.46 ± 0.120 ^abc | 16 | 8.13 ± 0.070 ^abc | 2 | 0.25 ± 0.01 ^abc ng/g Tissue | increase in SAP% [1]: 14.6%; SOD(U/g) (SOD): 0.68 ± 0.26 ^abc U/g; MDA (nmol/g Tissue) (MDA): 92.07 ± 0.04 ^abc nmol/g Tissue; Nrf-2 (Nrf-2): 0.25 ± 0.008 ^abc; IC50 (BChE): 5.72 ± 0.2 µM; Selectivity Index BChE/AChE (BChE): 5.21
CCOC(=O)c1c(OC(=O)CCl)sc2c1CCCCC2 [Compound 4, Ethyl 2-(2-chloroacetoxy)-5,6,7,8-tetrahydro-4H-cyclohepta[b]thiophene-3-carboxylate] | 72.67 ± 1.02 ^abc % | 26.2 | 21.89 ± 0.27 ^abc ng/mL | 38.9 | 17.05 ± 0.2 ^abc ng/g Tissue | 2.4 | 4.29 ± 0.76 ^abc ng/g Tissue | 30.69 ± 1.2 ^abc ng/g Tissue | 282.6 ± 1.2 ^abc nmol/g Tissue | 43.89 ± 0.19 ^abc ng/g Tissue | 34.8 | 30 | 82.82 ± 1.1 ^abc pg/g Tissue | 5.77 ± 0.19 ^abc | 6.30 ± 0.09 ^abc | 6.46 ± 0.120 ^abc | 23.3 | 7.42 ± 0.030 ^abc | 2.8 | 0.34 ± 0.01 ^abc ng/g Tissue | SOD(U/g) (SOD): 1.75 ± 0.31 ^abc U/g; SOD activity levels (SOD; brain): 1.75 U/g tissue; reduction in MDA brain content (MDA): 33.6%; MDA (nmol/g Tissue) (MDA): 77.14 ± 0.06 ^abc nmol/g Tissue; Nrf-2 (Nrf-2): 0.31 ± 0.004 ^abc; IC50 (BChE): 56.2 ± 1.93 µM; Selectivity Index BChE/AChE (BChE): 1.36
O=C1CN(c2ccccc2)C(=O)c2c(sc3c2CCCCC3)O1 [Compound 11, 4-Phenyl-3,4,7,8,9,10-hexahydro-6H-cyclohepta[4,5]thieno[3,2-f][1,4]oxazepine-2,5-dione] | 69.67 ± 1.69 ^abc % | 36.5 | 18.83 ± 0.13 ^abc ng/mL | 48.9 | 14.25 ± 0.16 ^abc ng/g Tissue | 5.0 | 9.13 ± 0.36 ^abc ng/g Tissue | 54.63 ± 6.11 ^abc ng/g Tissue | 321.2 ± 6.11 ^abc nmol/g Tissue | 20.09 ± 0.45 ^abc ng/g Tissue | 70.1 | 42.1 | 68.56 ± 0.54 ^abc pg/g Tissue | 4.93 ± 0.08 ^abc | 5.39 ± 0.11 ^abc | 5.92 ± 0.040 ^abc | 29.3 | 6.84 ± 0.090 ^abc | 3.9 | 0.47 ± 0.01 ^abc ng/g Tissue | increase in SAP% [1]: 22%; elevation of DA levels (DA): 4.6 fold; rise in the level of NE (NE): 1.7 times; reduction of NFκβ mRNA expression (NFκβ): 41.8%; reduction of NLRP3 mRNA expression (NLRP3): 49.5%; reduction of Caspase-1 levels (Caspase-1): 37.8%; SOD(U/g) (SOD): 2.46 ± 0.32 ^abc U/g; reduction in MDA brain content (MDA): 68.4%; MDA (nmol/g Tissue) (MDA): 36.75 ± 0.09 ^abc nmol/g Tissue; Nrf-2 (Nrf-2): 0.35 ± 0.006 ^abc; IC50 (BChE): 13.8 ± 0.48 µM; Selectivity Index BChE/AChE (BChE): 5.18
